Columns and labels:
[1] = Drug uptake in human SH-SY5Y cells at 10 uM measured after 12 hrs by laser scanning confocal microscopic analysis; assay type: ADME, cell-based
[2] = Drug uptake in mouse BV-2 cells at 10 uM measured after 12 hrs by laser scanning confocal microscopic analysis; assay type: ADME, cell-based; details: bv-2, 12 h
SH-SY5Y [3] = assay: Cytotoxicity against human SH-SY5Y cells assessed as reduction in cell viability at 7.81 to 31.25 uM measured after 72 hrs by MTT assay; assay type: cell-based; details: dose 7.81-31.25 µM
SH-SY5Y [4] = assay: Neuroprotective activity against H2O2-induced cytotoxicity in human SH-SY5Y cells assessed as cell viability at 5 uM preincubated for 6 hrs followed by H2O2 addition and measured after 24 hrs by MTT assay (reference value: 20%); assay type: functional; details: time 30 hrs, read-out: Activity
SH-SY5Y [5] = assay: Neuroprotective activity against H2O2-induced cytotoxicity in human SH-SY5Y cells assessed as cell viability at 20 uM preincubated for 6 hrs followed by H2O2 addition and measured after 24 hrs by MTT assay (reference value: 20%); assay type: functional; details: time 30 hrs, read-out: Activity
[6] = target: Acetylcholinesterase (Electrophorus electricus) (UniProt O42275); assay: Inhibition of electric eel AChE at 10 uM using acetylthiocholine iodide as substrate preincubated for 5 mins followed by substrate addition and measured after 1 min by Ellman's method relative to control; details: time 6.0 min
Sequence of Acetylcholinesterase (Electrophorus electricus) (O42275 24-633 limits assumed): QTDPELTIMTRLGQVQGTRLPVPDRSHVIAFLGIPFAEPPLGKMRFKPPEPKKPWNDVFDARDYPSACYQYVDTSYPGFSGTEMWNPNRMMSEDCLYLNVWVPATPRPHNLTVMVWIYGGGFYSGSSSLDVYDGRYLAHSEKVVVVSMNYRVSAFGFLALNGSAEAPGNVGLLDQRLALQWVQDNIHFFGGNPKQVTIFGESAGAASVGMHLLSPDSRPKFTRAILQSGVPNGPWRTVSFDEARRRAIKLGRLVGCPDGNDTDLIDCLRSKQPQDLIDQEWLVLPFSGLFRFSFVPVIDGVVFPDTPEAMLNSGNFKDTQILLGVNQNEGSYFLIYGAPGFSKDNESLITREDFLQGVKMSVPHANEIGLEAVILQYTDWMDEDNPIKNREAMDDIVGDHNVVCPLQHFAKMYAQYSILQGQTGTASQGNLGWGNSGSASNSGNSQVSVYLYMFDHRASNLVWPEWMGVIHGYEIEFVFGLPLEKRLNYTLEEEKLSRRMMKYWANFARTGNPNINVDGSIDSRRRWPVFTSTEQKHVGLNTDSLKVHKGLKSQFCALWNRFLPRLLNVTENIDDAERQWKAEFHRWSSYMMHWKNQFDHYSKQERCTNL

Acetylcholinesterase = Acetylcholinesterase (Electrophorus electricus, UniProt O42275); assay: Inhibition of electric eel AChE using acetylthiocholine iodide as substrate preincubated for 5 mins followed by substrate addition and measured after 1 min in presence of H2O2 by Ellman's method
Sequence of Acetylcholinesterase (O42275 whole entry): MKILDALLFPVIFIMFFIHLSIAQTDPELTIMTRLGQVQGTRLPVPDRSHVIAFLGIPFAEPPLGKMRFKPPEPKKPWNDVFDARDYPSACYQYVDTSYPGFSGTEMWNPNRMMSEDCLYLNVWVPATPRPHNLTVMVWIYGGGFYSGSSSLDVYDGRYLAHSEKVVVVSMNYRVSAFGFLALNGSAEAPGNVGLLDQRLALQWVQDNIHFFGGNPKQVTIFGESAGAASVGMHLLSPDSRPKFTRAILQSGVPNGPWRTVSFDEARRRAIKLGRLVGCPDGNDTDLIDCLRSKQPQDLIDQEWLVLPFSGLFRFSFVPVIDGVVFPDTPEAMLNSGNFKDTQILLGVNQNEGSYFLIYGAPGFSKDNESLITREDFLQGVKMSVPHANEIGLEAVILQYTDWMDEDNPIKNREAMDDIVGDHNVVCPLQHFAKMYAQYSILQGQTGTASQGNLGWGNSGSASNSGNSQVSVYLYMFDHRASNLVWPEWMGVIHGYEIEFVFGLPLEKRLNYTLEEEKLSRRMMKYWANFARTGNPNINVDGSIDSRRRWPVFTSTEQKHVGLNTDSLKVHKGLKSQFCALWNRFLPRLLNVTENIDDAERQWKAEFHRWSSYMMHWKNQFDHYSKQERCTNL

SH-SY5Y [7] = assay: Cytotoxicity against human SH-SY5Y cells assessed as reduction in cell viability at 31.25 uM measured after 72 hrs by MTT assay; assay type: cell-based
SH-SY5Y [8] = assay: Cytotoxicity against human SH-SY5Y cells assessed as reduction in cell viability at 7.81 to 15.62 uM measured after 72 hrs by MTT assay; assay type: cell-based; details: dose 7.81-15.62 µM

With `Cc1cc(COC(=O)CCCCCOc2ccc3ccc(=O)oc3c2)c(OCc2ccc(B3OC(C)(C)C(C)(C)O3)cc2)c(COC(=O)C(C)c2ccc(CC(C)C)cc2)c1` (configuration not stated) the Drug uptake [1] was “Active” and the Drug uptake [2] was “Active”.
With `Cc1cc(COC(=O)NCCCNc2c3c(nc4ccccc24)CCCC3)c(OCc2ccc(B3OC(C)(C)C(C)(C)O3)cc2)c(COC(=O)C(C)c2ccc(CC(C)C)cc2)c1` (configuration not stated) the Activity (SH-SY5Y [3]) was “Toxic”, the viability at 5 µM (SH-SY5Y [4]) was > 50% and the viability at 20 µM (SH-SY5Y [5]) was > 80%. The inhibition [6] was 32.9% and the IC50 (Acetylcholinesterase) was 302 nM.
For `Cc1cc(COC(=O)NCCCCNc2c3c(nc4ccccc24)CCCC3)c(OCc2ccc(B3OC(C)(C)C(C)(C)O3)cc2)c(COC(=O)C(C)c2ccc(CC(C)C)cc2)c1` (configuration not stated), the Activity (SH-SY5Y [7]) was “Toxic”, the Activity (SH-SY5Y [8]) was “Non-Toxic” and the viability at 5 µM (SH-SY5Y [4]) was > 50%. It also gave an inhibition [6] of 46% and an IC50 (Acetylcholinesterase) of 80 nM.

From ChEMBL document CHEMBL4732099, “ROS-responsive and multifunctional anti-Alzheimer prodrugs: Tacrine-ibuprofen hybrids via a phenyl boronate linker” (Eur J Med Chem, 2021)
